# Source: US4595696A, “Polyene compounds useful in the treatment of allergic responses” (USV Pharmaceutical Corp., priority 1985, dated 1986)
# Read-outs that look alike come from different tables or passages of the source.
# Key:
# [1] = biological target: T1, 5-Lipoxygenase (Rattus norvegicus, UniProt P12527); experiment: Inhibition of 5-Lipoxygenase, rat PMN (Protocol 1); assay type: cell-based; settings: rat neutrophils, 3 minutes at 30° C., 5-HETE formation; for Inhibition of 5-Lipoxygenase, Lox, Rat PMN (given as %): concentration not given; for IC50: [14C]-arachidonic acid and Calcium Ionophore A23187, read-out: Lox, Rat PMN (I50)
# T1 construct: endogenous in cells; host or cells: rat neutrophils (PMN)
# T1 sequence (P12527 1-673): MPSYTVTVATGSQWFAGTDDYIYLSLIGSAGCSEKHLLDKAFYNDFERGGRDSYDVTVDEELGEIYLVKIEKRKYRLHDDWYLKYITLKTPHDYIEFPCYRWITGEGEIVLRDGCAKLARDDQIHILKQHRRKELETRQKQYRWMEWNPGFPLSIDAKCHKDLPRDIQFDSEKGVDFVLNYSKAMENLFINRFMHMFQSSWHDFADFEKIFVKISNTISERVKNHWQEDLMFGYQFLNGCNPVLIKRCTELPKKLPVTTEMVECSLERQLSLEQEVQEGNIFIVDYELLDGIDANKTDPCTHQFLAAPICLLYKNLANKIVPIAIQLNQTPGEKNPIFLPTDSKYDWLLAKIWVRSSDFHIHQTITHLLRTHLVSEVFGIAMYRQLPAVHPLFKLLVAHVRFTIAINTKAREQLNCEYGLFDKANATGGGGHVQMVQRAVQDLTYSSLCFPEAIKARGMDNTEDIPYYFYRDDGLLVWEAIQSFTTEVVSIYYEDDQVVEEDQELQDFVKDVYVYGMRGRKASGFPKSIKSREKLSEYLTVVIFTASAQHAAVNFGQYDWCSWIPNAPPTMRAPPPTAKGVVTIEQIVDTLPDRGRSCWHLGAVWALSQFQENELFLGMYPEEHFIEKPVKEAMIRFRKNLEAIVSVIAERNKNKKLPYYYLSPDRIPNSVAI
# Experimental: Protocol 1 describes an assay to detect inhibitors of the lipoxygenase pathway. Such inhibitors are believed to be capable of modulating the biosynthesis of the leukotrienes, a property believed to be useful in treating asthma and inflammatory disease states. A suspension of rat neutrophils in buffer is incubated for 3 minutes at 30° C. with [^14 C]-arachidonic acid (AA) and Calcium Ionophore A23187. Citric acid (2M) is used to quench the reaction. […] The organic layer is washed with dilute acid and an aliquot is transferred to glass tubes and dried. […] The 5-HETE spots are visulaized with iodine, cut out and placed in scintillation vials for counting. After adjusting for the extraction efficiency, the amount (pmole) of [^14 C]-5-HETE in each of the tubes is quantitated. The net pmoles of 5-HETE are obtained by subtracting the pmoles of 5-HETE in the tubes containing buffer alone (blank) from the pmoles of 5-HETE in the tubes containing buffer and cells (control).
# [2] = biological target: T2, Phospholipase A2 (PLA2) (Rattus norvegicus, UniProt P14423); experiment: In Vitro Assay for Inhibitors of Phospholipase A2 (PLA2), rat platelets (Protocol II); assay type: biochemical
# T2 construct: The PLA2 employed in this screen is obtained by aggregation of purified rat platelets; from tissue; host or cells: purified rat platelets, enzyme obtained by aggregation
# T2 sequence (P14423 22-146): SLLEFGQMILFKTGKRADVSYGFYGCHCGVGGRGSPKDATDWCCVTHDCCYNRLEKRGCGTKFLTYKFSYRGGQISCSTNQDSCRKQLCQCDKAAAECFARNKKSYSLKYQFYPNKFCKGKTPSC
# Source text: An assay has been developed to test the ability of the invented compounds on the activity of the phospholipases. The following protocol describes a means for testing the inhibitory effect of these compounds on Phospholipase A2 (PLA2).
# In Vitro Assay for Inhibitors of Phospholipase A2 Assayed at pH 7.0 (PLA2)
# The PLA2 employed in this screen is obtained by aggregation of purified rat platelets. In the enzyme assay phosphatidylcholine having ^14 C-labeled palmitate residues at R1 and R2 is employed as substrate. PLA2 acts by cleaving the R2 fatty acid ester bond yielding free fatty acid and lysophosphatidylcholine as follows: [drawing 15]
# Following completion of the reaction, the assay medium is acidified and extracted with hexane, which takes up unreacted substrate and free fatty acid product. The hexane extract is passed over a short silica column which retains 99% of the phosphatidylcholine. The ^14 C-labeled palmitic acid is not retained (90% recovery in eluate) and is collected directly in scintillation counting vials. The released palmitic acid is conveniently quantitated by liquid scintillation spectrometry.
# The compounds were tested at 100 μM in a buffer containing 0.3 mM unlabeled phosphatidylcholine (PC), 20-30,000 cpm of ^14 C(CPC), […], 1 mM CaCl2 and 50 mM tris-HCl adjusted to pH 7.2 with 1N NaOH. […] The temperature of the buffer was maintained at a temperature of 37° C. The reaction was initiated by addition of the enzyme and it was terminated 30 minutes later by the addition of […] of 1N HCl.
# Following acidification, the samples were extracted with 2 ml of 2-propanol and 2 ml of hexane, vortexed and allowed to stand until the phases separated. Free fatty acids (FFA) and some unreacted substrate were taken up in the isopropanol-saturated hexane. The hexane phase of the extraction mixture was transferred to a short silica gell column which retained reacted PC but not the FFA. The column effluent was collected directly in scintillation vials. The columns were washed once with an additional 2 ml of hexane. The radio labeled FFA were quantitated by liquid scintillation spectrometry.
# [3] = rat platelets PLA2, phosphatidylcholine substrate, pH 7.2, 37° C., 30 minutes, read-out: PHOSPHOLIPASE A2 INHIBITION Activity (I50)
Compound,"IC50 [2, 3] [µM]",IC50 [1] [µM],further results
"CCNC(=O)/C=C(C)/C=C/C=C(C)/C=C/c1c(C)cc(OC)c(C)c1C [Ro 11 - 1430, reference compound]",–,–,"Inhibition of 5-Lipoxygenase, Lox, Rat PMN (given as %) [1]: -11 ± 19%"
"CC(=O)Nc1ccc(SC(=O)/C=C(C)/C=C/C=C(C)/C=C/C2=C(C)CCCC2(C)C)cc1 [Example 3, Retinoic Acid 4-Acetamidophenyl Thioester]",34,2.3,–
"CC(=O)Nc1cccc(OC(=O)/C=C(C)/C=C/C=C(C)/C=C/C2=C(C)CCCC2(C)C)c1 [Example 2, 3-Acetamidophenyl Retinoate]",48,55,–
"CC1=C(/C=C/C(C)=C/C=C/C(C)=C/C(=O)O)C(C)(C)CCC1 [all trans retinoic acid, reference compound]",–,90,"inhibition at 100 µM ([2]; at 100 μM, rat platelets PLA2, pH 7.2, 37° C., 30 minutes): 32%"
"CC(=O)Nc1ccc(OC(=O)/C=C/C=C(C)/C=C/C=C(C)/C=C/C2=C(C)CCCC2(C)C)cc1 [Example 4, 4-Acetamidophenyl 5,9-dimethyl-11-(2,6,6-trimethyl-1-cyclohexen-1-yl)-2,4,6,8,10-undecapentaenoate]",–,–,IC50 [2]: 17 µM
"CC(=O)Nc1ccc(OC(=O)/C=C(C)/C=C/C=C(C)/C=C/C2=C(C)CCCC2(C)C)cc1 [Example 1, 4-Acetamidophenyl Retinoate]",56,56,–
"CCOC(=O)/C=C(C)/C=C/C=C(C)/C=C/c1c(C)cc(OC)c(C)c1C [Ro 10 - 9359, reference compound]",–,–,"Inhibition of 5-Lipoxygenase, Lox, Rat PMN (given as %) [1]: 10 ± 17%"
